In patent US10588950B2, “Compositions and methods for counteracting Factor Xa inhibition” (Pfizer Inc., priority 2013, dated 2020):

Experiments:
[1] = tested on: whole blood clot formation; experiment: Whole blood rotational thromboelastometry (ROTEM); assay type: cell-based, human
Procedure: Whole blood thromboelastometry was used to assess the ability of the FXa^I16L variant to reverse the effects of the direct FXa inhibitors in whole blood. In this system, blood is drawn from healthy volunteers. The first 2 mL of blood were discarded and the subsequent 5 mL of blood was collected into a vacutainer (BID, Franklin Lakes, N.J.). Corn trypsin inhibitor and sodium citrate were in the collection tube, prior to collection of the blood sample, to achieve a final concentration of 0.105 M citrate and 25 μg/mL corn trypsin inhibitor (Haematologic Technologies, Burlington, Vt.) in the blood. Two sets of reactions were analyzed for each donor. The initial reaction initiated 5 minutes post blood collection. The second reaction initiated 1 hour post initiation of first reaction (1 hour 5 minutes after collection).
Blood was analyzed using Thromboelastometry ROTEM® delta (Tem International GmbH, Munich, Germany). For the reaction: (1) 6 μL of vehicle, protein, and/or inhibitor were added to the empty cup, (2) 20 μl of 0.2 M CaCl2 (final concentration 11.6 mM), and (3) 20 μl of Innovin (final concentration in reaction 1:10,000; source of tissue factor) were added to the cup. Whole blood collected as described above was added to the reaction (300 up and recordings were allowed to proceed for approximately 30-60 minutes. The data collected was analyzed using the manufacture's software. (Rotem Gamma Software Version 1.1.1).

[2] = tested on: thrombin generation in normal human plasma; experiment: Thrombin generation assay (TGA) in normal human plasma, Example 2; assay type: biochemical; conditions: 500 nM rivaroxaban versus plasma without rivaroxaban
Procedure: The thrombin generation assay (TGA) was used to assess whether the zymogen-like FXa variants can reverse the effects of direct FXa inhibitors in a more physiologic environment. The TGA measures thrombin production in plasma over time following the initiation of coagulation and was performed as previously described (See Bunce et al., (2011) Blood 117, 290-298, incorporated by reference herein in their entirety). […] Thrombin generation was initiated with 2.0 pM tissue factor/4 uM phospholipid as well as CaCl2 and a thrombin fluorogenic substrate.

[3] = tested on: clot formation at site of vascular injury; experiment: Laser-induced injury of mouse cremaster muscle, intravital microscopy; assay type: in vivo; conditions: 1 mg/kg rivaroxaban
Excerpt: Using standard techniques, the cremaster muscle of mice was exposed and visualized using intravital microscopy. A vascular injury in the muscle was then induced using a laser. After injury, clot formation was visualized using different fluorescently labeled antibodies that specifically recognize fibrin and platelets. Clotting is indicated by the presence of fluorescent signal from both types of antibodies.

[4] = tested on: clotting time of whole blood; experiment: ROTEM of whole blood from mice administered rivaroxaban and FXa^I16L in vivo; design: species or system C57BL/6 mice; conditions: 1 mg/kg rivaroxaban via tail vein, buffer only about 2 min
Procedure: Mice were then prepared to expose the jugular vein and the vena cava. Approximately 10 mill later FXa^I16L (1 or 2 mg/kg) was infused by direct injection into the jugular vein. Five minutes post injection blood was collected via the vena cava into citrate and corn trypsin inhibitor. Collected blood was then analyzed by ROTEM using dilute tissue factor (Innovin, 1:42,000 dilution).

[5] = tested on: blood loss following a tail cut; conditions: mouse, in vivo, 50 mg/kg
Procedure: Thirty minutes later, mice were anesthetized with isoflurane and placed on a heated platform, and the body temperature of the mice was maintained at 37° C. prior to the tail cut. The tails were immersed in 50 mL pre-warmed phosphate buffered saline (PBS) at 37° C. for 2 minutes. A 3 mm tail cut was made and blood was collected into PBS for a 10 minute period. A quantitative assessment of the amount of bleeding was determined by hemoglobin content of the blood collected into PBS. Tubes were centrifuged to collect erythrocytes, resuspended in 5 mL lysis buffer (8.3 g/L NH4Cl, 1.0 g/L KHCO3, and 0.037 g/L EDTA), and the absorbance of the sample was measured at 575 nm. The absorbance values were converted to total blood loss (μL) using a standard curve.
Mice were then anesthetized with isoflurane and placed on a heated platform, and the body temperature of the mice was maintained at 37° C. prior to the tail cut. The tails were immersed in 50 mLs pre-warmed phosphate buffered saline (PBS) at 37° C. for 2 minutes. A 3 mm tail cut was made and blood was collected into PBS for a 10 minute period and the assessment of the amount of bleeding was determined by hemoglobin content as described.

[6] = tested on: thrombin generation in normal human plasma; experiment: Thrombin generation assay using calibrated automated thrombography (CAT), Example 4; assay type: biochemical
Procedure: Normal human plasma was obtained from George King Biomedical (Overland Park, Kans.). […] Immediately preceding reaction initiation, 10 μL of vehicle or FXa^I16L was added to plasma at final concentrations ranging from 0.03125 nM to 0.5 nM FXa^I16L, given a 120 μL total reaction volume. Reactions were initiated by addition of 20 μL FluCa buffer containing calcium chloride and fluorogenic substrate. Fluorescence of plasma reactions was read at 37° C. at 20 second intervals on a Fluoroskan Ascent fluorometer and compared to those of reference thrombin calibrator reactions to determine thrombin concentrations. The intensity of the fluorescence signal (FU) was continuously monitored at 37° C. using the CAT. Thrombin generation curves (nM thrombin vs. time) were analyzed to extract lag time, peak height, time to peak, and the area under the curve representing the endogenous thrombin potential (ETP) using the Thromboscope software (Thrombinoscope BV version).

[7] = molecular target: FXa^I16L (Homo sapiens, UniProt P00742, I235L); experiment: Inhibition of free FXa^I16L peptidyl substrate (SpecXa) hydrolysis by rivaroxaban; assay type: biochemical; conditions: free enzyme
[8] = high doses (supratherapeutic concentrations)
[9] = low doses (therapeutic concentrations)

Sequence of FXa^I16L (P00742 41-179): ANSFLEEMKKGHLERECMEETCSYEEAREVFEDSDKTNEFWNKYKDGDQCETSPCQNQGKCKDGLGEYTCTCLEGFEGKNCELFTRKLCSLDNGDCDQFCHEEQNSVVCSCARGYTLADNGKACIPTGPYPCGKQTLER
Sequence of FXa^I16L (P00742 235-488 I235L): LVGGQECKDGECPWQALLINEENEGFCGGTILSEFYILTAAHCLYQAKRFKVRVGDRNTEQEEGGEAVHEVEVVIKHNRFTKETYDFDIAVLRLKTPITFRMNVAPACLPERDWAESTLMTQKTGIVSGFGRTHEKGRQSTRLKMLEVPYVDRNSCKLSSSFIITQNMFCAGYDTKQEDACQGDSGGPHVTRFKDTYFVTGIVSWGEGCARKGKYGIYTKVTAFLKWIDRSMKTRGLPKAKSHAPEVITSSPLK

SMILES	whole blood clot formation, inhibitor alone [1, 8]	whole blood clot formation, inhibitor alone [1, 9]	thrombin generation profile of plasma [2]	accumulation of platelets at the injury site [3]	signs of fibrin at the injury site [3]	clot time of whole blood (ROTEM) [4]	blood loss following the tail transection [5]	thrombin generation in normal human plasma ([6]; in vitro rivaroxaban treatment 5-200 nM)	ETP ([6]; rivaroxaban alone)	lag time ([6]; rivaroxaban alone)	peak thrombin ([6]; rivaroxaban alone)	reduced affinity to FXa^I16L versus wild-type FXa [7]
COc1ccc(-n2nc(C(N)=O)c3c2C(=O)N(c2ccc(N4CCCCC4=O)cc2)CC3)cc1 [apixaban]	almost completely eliminated	partially eliminated										
O=C(NC[C@H]1CN(c2ccc(N3CCOCC3=O)cc2)C(=O)O1)c1ccc(Cl)s1 [rivaroxaban]	almost completely eliminated	partially eliminated	substantially reduced	delayed	eliminated	Approximately 10 min	increase	dose dependent inhibition	decrease	increase	decrease	~15 fold
